Legend:
Test in all cases: KINOMEscan binding assay
DCAMKL1 = target: T1, DCAMKL1 (Homo sapiens, UniProt O15075)
T1 construct: purchased DiscoveRx KINOMEscan
Summary of the method: (§1)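 Readout reflects displacement of an active site-directed ligand, scored across more than 400 kinases with i-CDK9 at 1 µM and at 10 µM.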

[1] = target: T2, RSK2(Kin.Dom.1-N-terminal) (Homo sapiens, UniProt P51812); conditions: read-out: % Retention on Solid Support
T2 construct: RSK2(Kin.Dom.1-N-terminal); purchased DiscoveRx KINOMEscan
Summary of the method: as §1

ASK2 = target: T3, ASK2 (Homo sapiens, UniProt O95382); conditions: read-out: % Retention on Solid Support
T3 construct: purchased DiscoveRx KINOMEscan
Summary of the method: as §1

CTK = target: T4, CTK (Homo sapiens, UniProt P42679); conditions: read-out: % Retention on Solid Support
T4 construct: purchased DiscoveRx KINOMEscan
Summary of the method: as §1

JNK2 = target: T5, JNK2 (Homo sapiens, UniProt P45984)
T5 construct: purchased DiscoveRx KINOMEscan
Summary of the method: as §1

NLK = target: T6, NLK (Homo sapiens, UniProt Q9UBE8); conditions: read-out: % Retention on Solid Support
T6 construct: purchased DiscoveRx KINOMEscan
Summary of the method: as §1

RIPK2 = target: T7, RIPK2 (Homo sapiens, UniProt O43353); conditions: read-out: % Retention on Solid Support
T7 construct: purchased DiscoveRx KINOMEscan
Summary of the method: as §1

LATS2 = target: T8, LATS2 (Homo sapiens, UniProt Q9NRM7)
T8 construct: purchased DiscoveRx KINOMEscan
Summary of the method: as §1

EGFR(L747-T751del,Sins) = tested on: EGFR(L747-T751del,Sins)
Summary of the method: as §1

RET(M918T) = target: T9, RET(M918T) (Homo sapiens, UniProt P07949, M918T); conditions: read-out: % Retention on Solid Support
T9 construct: purchased DiscoveRx KINOMEscan
Summary of the method: as §1

AKT1 = target: T10, AKT1 (Homo sapiens, UniProt P31749); conditions: read-out: % Retention on Solid Support
T10 construct: purchased DiscoveRx KINOMEscan
Summary of the method: as §1

LRRK2(G2019S) = target: T11, LRRK2(G2019S) (Homo sapiens, UniProt Q5S007, G2019S); conditions: 1 µM i-CDK9; read-out: % Retention on Solid Support
T11 construct: purchased DiscoveRx KINOMEscan
Summary of the method: as §1

BMPR1A = target: T12, BMPR1A (Homo sapiens, UniProt P36894); conditions: read-out: % Retention on Solid Support
T12 construct: purchased DiscoveRx KINOMEscan
Summary of the method: as §1

BMPR2 = target: T13, BMPR2 (Homo sapiens, UniProt Q13873)
T13 construct: purchased DiscoveRx KINOMEscan
Summary of the method: as §1

MST1 = target: T14, MST1 (Homo sapiens, UniProt Q13043)
T14 construct: purchased DiscoveRx KINOMEscan
Summary of the method: as §1

AMPK-alpha2 = target: T15, AMPK-alpha2 (Homo sapiens, UniProt P54646); conditions: read-out: % Retention on Solid Support
T15 construct: purchased DiscoveRx KINOMEscan
Summary of the method: as §1

SNARK = target: T16, SNARK (Homo sapiens, UniProt Q9H093)
T16 construct: purchased DiscoveRx KINOMEscan
Summary of the method: as §1

CDKL1 = target: T17, CDKL1 (Homo sapiens, UniProt Q00532); conditions: 1 µM i-CDK9; read-out: % Retention on Solid Support
T17 construct: purchased DiscoveRx KINOMEscan
Summary of the method: as §1

PDGFRB = target: T18, PDGFRB (Homo sapiens, UniProt P09619); conditions: read-out: % Retention on Solid Support
T18 construct: purchased DiscoveRx KINOMEscan
Summary of the method: as §1

PIK3C2G = target: T19, PIK3C2G (Homo sapiens, UniProt O75747); conditions: read-out: % Retention on Solid Support
T19 construct: purchased DiscoveRx KINOMEscan
Summary of the method: as §1

MYLK = target: T20, MYLK (Homo sapiens, UniProt Q15746); conditions: read-out: % Retention on Solid Support
T20 construct: purchased DiscoveRx KINOMEscan
Summary of the method: as §1

TRKA = target: T21, TRKA (Homo sapiens, UniProt P04629); conditions: read-out: % Retention on Solid Support
T21 construct: purchased DiscoveRx KINOMEscan
Summary of the method: as §1

LIMK2 = target: T22, LIMK2 (Homo sapiens, UniProt P53671); conditions: read-out: % Retention on Solid Support
T22 construct: purchased DiscoveRx KINOMEscan
Summary of the method: as §1

MAP3K2 = target: T23, MAP3K2 (Homo sapiens, UniProt Q9Y2U5); conditions: read-out: % Retention on Solid Support
T23 construct: purchased DiscoveRx KINOMEscan
Summary of the method: as §1

TBK1 = target: T24, TBK1 (Homo sapiens, UniProt Q9UHD2); conditions: read-out: % Retention on Solid Support
T24 construct: purchased DiscoveRx KINOMEscan
Summary of the method: as §1

MERTK = target: T25, MERTK (Homo sapiens, UniProt Q12866); conditions: read-out: % Retention on Solid Support
T25 construct: purchased DiscoveRx KINOMEscan
Summary of the method: as §1

ROCK1 = target: T26, ROCK1 (Homo sapiens, UniProt Q13464); conditions: read-out: % Retention on Solid Support
T26 construct: purchased DiscoveRx KINOMEscan
Summary of the method: as §1

EPHA2 = target: T27, EPHA2 (Homo sapiens, UniProt P29317); conditions: read-out: % Retention on Solid Support
T27 construct: purchased DiscoveRx KINOMEscan
Summary of the method: as §1

AURKC = target: T28, AURKC (Homo sapiens, UniProt Q9UQB9); conditions: read-out: % Retention on Solid Support
T28 construct: purchased DiscoveRx KINOMEscan
Summary of the method: as §1

PRKD2 = target: T29, PRKD2 (Homo sapiens, UniProt Q9BZL6); conditions: read-out: % Retention on Solid Support
T29 construct: purchased DiscoveRx KINOMEscan
Summary of the method: as §1

T20 sequence (Q15746 whole entry): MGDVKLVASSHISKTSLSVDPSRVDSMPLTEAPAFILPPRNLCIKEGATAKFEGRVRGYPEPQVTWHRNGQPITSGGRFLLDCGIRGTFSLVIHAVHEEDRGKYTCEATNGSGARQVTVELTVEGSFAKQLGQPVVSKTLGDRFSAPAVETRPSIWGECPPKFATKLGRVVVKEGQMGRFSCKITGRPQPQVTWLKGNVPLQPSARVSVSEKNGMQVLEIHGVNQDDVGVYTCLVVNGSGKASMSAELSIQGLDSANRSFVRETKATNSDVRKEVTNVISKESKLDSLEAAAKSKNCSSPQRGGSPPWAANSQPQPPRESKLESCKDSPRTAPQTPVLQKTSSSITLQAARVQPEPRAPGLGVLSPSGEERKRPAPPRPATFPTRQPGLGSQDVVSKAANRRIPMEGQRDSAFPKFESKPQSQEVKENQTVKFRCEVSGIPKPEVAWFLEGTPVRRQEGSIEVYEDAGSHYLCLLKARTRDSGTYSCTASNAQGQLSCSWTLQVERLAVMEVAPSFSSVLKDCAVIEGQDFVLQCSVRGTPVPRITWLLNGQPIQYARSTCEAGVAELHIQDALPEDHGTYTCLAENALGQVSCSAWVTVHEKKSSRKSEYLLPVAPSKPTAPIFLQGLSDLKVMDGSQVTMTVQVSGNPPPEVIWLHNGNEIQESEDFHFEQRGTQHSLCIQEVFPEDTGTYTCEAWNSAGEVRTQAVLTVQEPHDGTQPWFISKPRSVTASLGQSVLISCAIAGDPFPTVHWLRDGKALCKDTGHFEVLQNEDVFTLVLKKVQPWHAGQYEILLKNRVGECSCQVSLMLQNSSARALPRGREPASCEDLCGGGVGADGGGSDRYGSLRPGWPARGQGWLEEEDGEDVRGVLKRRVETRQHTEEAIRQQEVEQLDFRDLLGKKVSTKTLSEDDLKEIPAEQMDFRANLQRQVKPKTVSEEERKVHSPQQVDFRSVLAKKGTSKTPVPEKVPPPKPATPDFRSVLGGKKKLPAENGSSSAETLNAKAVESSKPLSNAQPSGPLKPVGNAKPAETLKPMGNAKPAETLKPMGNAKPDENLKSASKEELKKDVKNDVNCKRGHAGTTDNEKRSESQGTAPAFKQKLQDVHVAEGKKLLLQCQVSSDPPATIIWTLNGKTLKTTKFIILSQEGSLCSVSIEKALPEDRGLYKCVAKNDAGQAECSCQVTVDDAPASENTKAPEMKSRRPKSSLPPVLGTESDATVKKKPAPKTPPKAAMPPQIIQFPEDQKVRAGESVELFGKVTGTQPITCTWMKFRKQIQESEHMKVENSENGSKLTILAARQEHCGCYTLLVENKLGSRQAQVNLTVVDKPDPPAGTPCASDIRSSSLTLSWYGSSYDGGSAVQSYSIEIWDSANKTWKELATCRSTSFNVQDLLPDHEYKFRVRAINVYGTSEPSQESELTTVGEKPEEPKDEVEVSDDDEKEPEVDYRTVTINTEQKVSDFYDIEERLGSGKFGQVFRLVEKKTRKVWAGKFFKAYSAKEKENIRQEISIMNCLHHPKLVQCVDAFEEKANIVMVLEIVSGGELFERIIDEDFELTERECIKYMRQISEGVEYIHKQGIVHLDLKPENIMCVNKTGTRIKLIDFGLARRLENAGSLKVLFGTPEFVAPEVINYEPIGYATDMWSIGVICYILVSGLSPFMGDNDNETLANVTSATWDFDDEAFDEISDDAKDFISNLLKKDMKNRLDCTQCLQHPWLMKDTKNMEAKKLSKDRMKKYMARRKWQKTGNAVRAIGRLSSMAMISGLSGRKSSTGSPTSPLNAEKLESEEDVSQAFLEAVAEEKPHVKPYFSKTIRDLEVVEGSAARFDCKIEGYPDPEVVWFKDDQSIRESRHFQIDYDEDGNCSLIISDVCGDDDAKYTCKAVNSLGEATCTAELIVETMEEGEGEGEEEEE
T22 sequence (P53671 whole entry): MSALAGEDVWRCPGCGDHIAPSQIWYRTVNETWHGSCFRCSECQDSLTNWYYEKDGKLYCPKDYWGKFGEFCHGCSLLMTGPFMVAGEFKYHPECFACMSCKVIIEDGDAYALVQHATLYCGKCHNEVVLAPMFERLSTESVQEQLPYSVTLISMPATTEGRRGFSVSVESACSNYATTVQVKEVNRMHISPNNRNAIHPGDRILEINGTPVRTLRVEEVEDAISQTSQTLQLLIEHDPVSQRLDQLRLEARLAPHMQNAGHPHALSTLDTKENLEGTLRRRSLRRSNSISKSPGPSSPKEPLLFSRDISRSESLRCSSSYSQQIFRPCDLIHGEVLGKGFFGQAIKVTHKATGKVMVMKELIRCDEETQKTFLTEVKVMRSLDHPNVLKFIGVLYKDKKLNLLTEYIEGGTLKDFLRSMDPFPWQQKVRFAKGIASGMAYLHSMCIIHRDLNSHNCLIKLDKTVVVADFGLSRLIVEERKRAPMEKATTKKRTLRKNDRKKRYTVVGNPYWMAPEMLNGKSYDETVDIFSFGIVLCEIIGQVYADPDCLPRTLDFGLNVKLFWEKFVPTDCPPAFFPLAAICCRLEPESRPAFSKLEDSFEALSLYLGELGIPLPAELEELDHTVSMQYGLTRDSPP
T13 sequence (Q13873 27-1038): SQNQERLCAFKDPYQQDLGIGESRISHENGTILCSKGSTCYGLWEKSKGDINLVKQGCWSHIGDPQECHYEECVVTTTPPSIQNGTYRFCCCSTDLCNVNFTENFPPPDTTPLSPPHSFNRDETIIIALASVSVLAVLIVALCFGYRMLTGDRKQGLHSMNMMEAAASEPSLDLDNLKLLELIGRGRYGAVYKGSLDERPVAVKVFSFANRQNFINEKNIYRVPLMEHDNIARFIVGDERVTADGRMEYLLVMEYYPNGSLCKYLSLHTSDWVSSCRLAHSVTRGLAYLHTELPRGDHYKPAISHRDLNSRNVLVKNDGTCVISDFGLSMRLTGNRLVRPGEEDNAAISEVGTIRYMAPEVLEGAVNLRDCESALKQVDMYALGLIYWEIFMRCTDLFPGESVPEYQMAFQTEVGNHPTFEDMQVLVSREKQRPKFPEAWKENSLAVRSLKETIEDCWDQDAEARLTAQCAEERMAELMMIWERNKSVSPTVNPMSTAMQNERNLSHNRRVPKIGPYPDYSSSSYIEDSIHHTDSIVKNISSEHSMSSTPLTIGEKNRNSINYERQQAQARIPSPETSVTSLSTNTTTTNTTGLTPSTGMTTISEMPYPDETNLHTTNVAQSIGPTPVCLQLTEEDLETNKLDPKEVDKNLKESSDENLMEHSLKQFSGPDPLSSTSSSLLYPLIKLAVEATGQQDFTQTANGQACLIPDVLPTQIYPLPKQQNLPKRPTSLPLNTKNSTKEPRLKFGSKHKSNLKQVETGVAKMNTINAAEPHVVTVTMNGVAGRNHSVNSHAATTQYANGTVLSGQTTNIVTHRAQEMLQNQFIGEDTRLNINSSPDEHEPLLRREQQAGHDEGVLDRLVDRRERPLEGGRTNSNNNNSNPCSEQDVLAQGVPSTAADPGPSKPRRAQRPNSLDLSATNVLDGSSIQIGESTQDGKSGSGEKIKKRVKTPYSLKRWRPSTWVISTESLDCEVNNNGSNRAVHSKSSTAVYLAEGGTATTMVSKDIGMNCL
T19 sequence (O75747 whole entry): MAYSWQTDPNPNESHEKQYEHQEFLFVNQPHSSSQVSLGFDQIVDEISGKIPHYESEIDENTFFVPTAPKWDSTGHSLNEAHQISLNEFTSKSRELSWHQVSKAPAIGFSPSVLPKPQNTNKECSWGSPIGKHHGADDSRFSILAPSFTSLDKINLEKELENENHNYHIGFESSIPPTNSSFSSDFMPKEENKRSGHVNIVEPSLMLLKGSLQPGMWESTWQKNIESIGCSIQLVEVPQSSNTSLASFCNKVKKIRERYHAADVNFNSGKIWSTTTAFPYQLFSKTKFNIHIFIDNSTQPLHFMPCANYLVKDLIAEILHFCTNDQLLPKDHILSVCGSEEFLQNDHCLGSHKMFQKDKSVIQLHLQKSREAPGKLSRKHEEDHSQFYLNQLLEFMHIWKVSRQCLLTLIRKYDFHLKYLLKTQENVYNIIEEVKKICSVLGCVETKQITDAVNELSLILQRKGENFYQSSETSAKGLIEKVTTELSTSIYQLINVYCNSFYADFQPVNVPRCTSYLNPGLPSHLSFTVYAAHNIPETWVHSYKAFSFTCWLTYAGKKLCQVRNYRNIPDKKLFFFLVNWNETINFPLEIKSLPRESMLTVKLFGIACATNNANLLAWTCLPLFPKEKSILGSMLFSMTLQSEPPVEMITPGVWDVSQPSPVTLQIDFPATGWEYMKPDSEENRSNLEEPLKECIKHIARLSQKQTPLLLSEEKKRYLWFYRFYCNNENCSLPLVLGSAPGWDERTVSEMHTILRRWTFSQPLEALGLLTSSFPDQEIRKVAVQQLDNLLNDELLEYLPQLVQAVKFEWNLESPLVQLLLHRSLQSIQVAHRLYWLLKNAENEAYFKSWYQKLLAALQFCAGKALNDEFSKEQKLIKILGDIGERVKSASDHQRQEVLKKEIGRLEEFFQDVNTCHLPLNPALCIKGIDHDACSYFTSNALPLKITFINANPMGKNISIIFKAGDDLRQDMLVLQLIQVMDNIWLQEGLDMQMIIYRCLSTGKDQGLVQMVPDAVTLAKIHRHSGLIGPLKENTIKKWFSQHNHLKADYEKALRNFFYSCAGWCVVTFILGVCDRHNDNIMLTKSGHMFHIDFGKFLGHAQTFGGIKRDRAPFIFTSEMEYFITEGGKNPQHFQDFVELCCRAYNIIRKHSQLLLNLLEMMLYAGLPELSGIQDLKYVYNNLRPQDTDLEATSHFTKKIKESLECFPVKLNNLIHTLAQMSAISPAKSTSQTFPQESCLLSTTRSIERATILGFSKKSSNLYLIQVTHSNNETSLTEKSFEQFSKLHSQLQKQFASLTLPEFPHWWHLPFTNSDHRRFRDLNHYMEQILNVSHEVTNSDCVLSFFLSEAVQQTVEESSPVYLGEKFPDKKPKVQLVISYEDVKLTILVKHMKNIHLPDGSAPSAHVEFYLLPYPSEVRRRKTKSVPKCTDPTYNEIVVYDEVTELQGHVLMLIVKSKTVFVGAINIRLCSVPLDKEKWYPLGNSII

N[C@H]1CC[C@H](Nc2cc(-c3cccc(NCc4cccc(F)c4)n3)c(Cl)cn2)CC1 [i-CDK9, N2′-(trans-4-aminocyclohexyl)-5′-chloro-N6-(3-fluorobenzyl)-2,4′-bipyridine-2′,6-diamine]
% Retention on Solid Support (DCAMKL1; 1 µM i-CDK9): 100%
% Retention on Solid Support (DCAMKL1; 10 µM i-CDK9): 100%
remaining binding at 1 µM ([1]; 1 µM i-CDK9): 86%
remaining binding at 10 µM ([1]; 10 µM i-CDK9): 76%
remaining binding at 1 µM (ASK2; 1 µM i-CDK9): 100%
remaining binding at 10 µM (ASK2; 10 µM i-CDK9): 92%
remaining binding at 1 µM (CTK; 1 µM i-CDK9): 75%
remaining binding at 10 µM (CTK; 10 µM i-CDK9): 100%
% Retention on Solid Support (JNK2; 1 µM i-CDK9): 98%
% Retention on Solid Support (JNK2; 10 µM i-CDK9): 78%
remaining binding at 1 µM (NLK; 1 µM i-CDK9): 100%
remaining binding at 10 µM (NLK; 10 µM i-CDK9): 91%
remaining binding at 1 µM (RIPK2; 1 µM i-CDK9): 65%
remaining binding at 10 µM (RIPK2; 10 µM i-CDK9): 77%
% Retention on Solid Support (LATS2; 1 µM i-CDK9): 100%
% Retention on Solid Support (LATS2; 10 µM i-CDK9): 100%
% Retention on Solid Support (EGFR(L747-T751del,Sins); 1 µM i-CDK9): 82%
% Retention on Solid Support (EGFR(L747-T751del,Sins); 10 µM i-CDK9): 61%
remaining binding at 1 µM (RET(M918T); 1 µM i-CDK9): 81%
remaining binding at 10 µM (RET(M918T); 10 µM i-CDK9): 73%
remaining binding at 1 µM (AKT1; 1 µM i-CDK9): 100%
remaining binding at 10 µM (AKT1; 10 µM i-CDK9): 100%
remaining binding at 1 µM (LRRK2(G2019S)): 100%
remaining binding at 1 µM (BMPR1A; 1 µM i-CDK9): 63%
remaining binding at 10 µM (BMPR1A; 10 µM i-CDK9): 100%
% Retention on Solid Support (BMPR2; 1 µM i-CDK9): 100%
% Retention on Solid Support (BMPR2; 10 µM i-CDK9): 100%
% Retention on Solid Support (MST1; 1 µM i-CDK9): 100%
% Retention on Solid Support (MST1; 10 µM i-CDK9): 100%
remaining binding at 1 µM (AMPK-alpha2; 1 µM i-CDK9): 83%
remaining binding at 10 µM (AMPK-alpha2; 10 µM i-CDK9): 88%
% Retention on Solid Support (SNARK; 1 µM i-CDK9): 100%
% Retention on Solid Support (SNARK; 10 µM i-CDK9): 87%
remaining binding at 1 µM (CDKL1): 100%
remaining binding at 1 µM (PDGFRB; 1 µM i-CDK9): 74%
remaining binding at 10 µM (PDGFRB; 10 µM i-CDK9): 100%
remaining binding at 1 µM (PIK3C2G; 1 µM i-CDK9): 100%
remaining binding at 10 µM (PIK3C2G; 10 µM i-CDK9): 99%
remaining binding at 1 µM (MYLK; 1 µM i-CDK9): 100%
remaining binding at 10 µM (MYLK; 10 µM i-CDK9): 100%
remaining binding at 1 µM (TRKA; 1 µM i-CDK9): 100%
remaining binding at 10 µM (TRKA; 10 µM i-CDK9): 89%
remaining binding at 1 µM (LIMK2; 1 µM i-CDK9): 100%
remaining binding at 10 µM (LIMK2; 10 µM i-CDK9): 100%
remaining binding at 1 µM (MAP3K2; 1 µM i-CDK9): 23%
remaining binding at 10 µM (MAP3K2; 10 µM i-CDK9): 100%
remaining binding at 1 µM (TBK1; 1 µM i-CDK9): 100%
remaining binding at 10 µM (TBK1; 10 µM i-CDK9): 100%
remaining binding at 1 µM (MERTK; 1 µM i-CDK9): 100%
remaining binding at 10 µM (MERTK; 10 µM i-CDK9): 60%
remaining binding at 1 µM (ROCK1; 1 µM i-CDK9): 100%
remaining binding at 10 µM (ROCK1; 10 µM i-CDK9): 93%
remaining binding at 1 µM (EPHA2; 1 µM i-CDK9): 100%
remaining binding at 10 µM (EPHA2; 10 µM i-CDK9): 100%
remaining binding at 1 µM (AURKC; 1 µM i-CDK9): 100%
remaining binding at 10 µM (AURKC; 10 µM i-CDK9): 71%
remaining binding at 1 µM (PRKD2; 1 µM i-CDK9): 88%
remaining binding at 10 µM (PRKD2; 10 µM i-CDK9): 47%

From PMC4490784, “Compensatory induction of MYC expression by sustained CDK9 inhibition via a BRD4-dependent mechanism” (eLife, 2015)
